Measurements as given in patent publication US20230085307A1, “PYRIDAZINONE COMPOUND AND HERBICIDE” (NISSAN CHEMICAL CORPORATION, priority 2019, published 2023).

Tests used:
[1] = tested on: persian speedwell; assay: Test Example 5: herbicidal effect by foliage application, plastic box (Table 20, symbol R); format: in vivo, Persian speedwell (Veronica persica); details: foliage application, AAH 320 g/ha, three weeks after application
Procedure, shortened: (§1)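 Foliar spray test: emulsion formulation diluted in water to a set application rate, sprayed onto 14-day-old plants raised in diluvial soil at 25° C to 30° C under glass. Both herbicidal effect and crop effect rated visually three weeks later.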

[2] = tested on: southern crabgrass; assay: Test Example 5: herbicidal effect by foliage application, plastic box (Table 20, symbol F); format: in vivo, southern crabgrass (Digitaria ciliaris); details: foliage application, AAH 320 g/ha, three weeks after application
Procedure, shortened: as §1

[3] = tested on: Japanese bulrush; assay: Test Example 2: herbicidal activity, application during weed generation under submerged conditions (Table 17, symbol B); format: in vivo, Japanese bulrush (Schoenoplectus juncoides); details: AAH 320 g/ha; application during weed generation, submerged conditions
Procedure, shortened: (§2)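 Steps: fill Wagner pots with alluvial soil; add water to give 4 cm depth; sow the species mixed; grow under glass at 25–30° C.; at 1–2 leaves apply water-diluted emulsion formulation to the water surface at a fixed herbicide amount; score after 3 weeks.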

[4] = tested on: barnyard grass; assay: Test Example 5: herbicidal effect by foliage application, plastic box (Table 20, symbol H); format: in vivo, barnyard grass (Echinochloa crus-galli); details: foliage application, AAH 320 g/ha, three weeks after application
Procedure, shortened: as §1

[5] = tested on: chickweed; assay: Test Example 4: herbicidal effect by soil treatment (Table 19, symbol P); format: in vivo, common chickweed (Stellaria media); details: AAH 320 g/ha
Procedure, shortened: (§3)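 Herbicidal effect was rated 3 weeks after treatment, using the scoring criteria of an earlier test. The compound, formulated as an emulsion and diluted in water to a set herbicide amount, had been sprayed uniformly on soil over freshly sown seeds. Growth took place in a greenhouse at 25° C. to 30° C.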

[6] = tested on: southern crabgrass; assay: Test Example 4: herbicidal effect by soil treatment (Table 19, symbol F); format: in vivo, southern crabgrass (Digitaria ciliaris); details: AAH 320 g/ha
Procedure, shortened: as §3

[7] = tested on: redroot pigweed; assay: Test Example 5: herbicidal effect by foliage application, plastic box (Table 20, symbol N); format: in vivo, redroot pigweed (Amaranthus retroflexus); details: foliage application, AAH 320 g/ha, three weeks after application
Procedure, shortened: as §1

[8] = tested on: Italian ryegrass; assay: Test Example 5: herbicidal effect by foliage application, plastic box (Table 20, symbol K); format: in vivo, Italian ryegrass (Lolium multiflorum); details: foliage application, AAH 320 g/ha, three weeks after application
Procedure, shortened: as §1

[9] = tested on: lambsquarters; assay: Test Example 5: herbicidal effect by foliage application, plastic box (Table 20, symbol O); format: in vivo, lambsquarters (Chenopodium album); details: foliage application, AAH 320 g/ha, three weeks after application
Procedure, shortened: as §1

[10] = tested on: persian speedwell; assay: Test Example 4: herbicidal effect by soil treatment (Table 19, symbol R); format: in vivo, Persian speedwell (Veronica persica); details: AAH 320 g/ha
Procedure, shortened: as §3

[11] = tested on: Italian ryegrass; assay: Test Example 4: herbicidal effect by soil treatment (Table 19, symbol K); format: in vivo, Italian ryegrass (Lolium multiflorum); details: AAH 320 g/ha
Procedure, shortened: as §3

[12] = tested on: redroot pigweed; assay: Test Example 4: herbicidal effect by soil treatment (Table 19, symbol N); format: in vivo, redroot pigweed (Amaranthus retroflexus); details: AAH 320 g/ha
Procedure, shortened: as §3

[13] = tested on: green foxtail; assay: Test Example 4: herbicidal effect by soil treatment (Table 19, symbol G); format: in vivo, green foxtail (Setaria viridis); details: AAH 320 g/ha
Procedure, shortened: as §3

[14] = tested on: blackgrass; assay: Test Example 4: herbicidal effect by soil treatment (Table 19, symbol J); format: in vivo, blackgrass (Alopecurus myosuroides); details: AAH 320 g/ha
Procedure, shortened: as §3

[15] = tested on: late watergrass; assay: Test Example 1: herbicidal activity, application before weed generation under submerged conditions (Table 16, symbol A); format: in vivo, late watergrass (Echinochloa oryzicola); details: 320 g/ha applied herbicide
Procedure, shortened: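 Alluvial soil was flooded to 4 cm depth, weed seeds were sown mixed and 2.5-leaf rice seedlings were transplanted. On sowing day, the compound's emulsion, diluted in water to a set dose, was applied to the water surface. Plants grew at 25–30 °C and were scored 0–5 after three weeks.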

[16] = tested on: oval-leafed pondweed; assay: Test Example 2: herbicidal activity, application during weed generation under submerged conditions (Table 17, symbol C); format: in vivo, oval-leafed pondweed (Monochoria vaginalis); details: AAH 320 g/ha; application during weed generation, submerged conditions
Procedure, shortened: as §2

Row | Compound | R: persian speedwell, herbicidal effect [1] | F: southern crabgrass, herbicidal effect [2] | herbicidal effect rating, B: Japanese bulrush [3] | H: barnyard grass, herbicidal effect [4] | P: chickweed, herbicidal effect rating [5] | F: southern crabgrass, herbicidal effect rating [6] | N: redroot pigweed, herbicidal effect [7] | K: Italian ryegrass, herbicidal effect [8] | O: lambsquarters, herbicidal effect [9] | R: persian speedwell, herbicidal effect rating [10] | K: Italian ryegrass, herbicidal effect rating [11] | N: redroot pigweed, herbicidal effect rating [12] | G: green foxtail, herbicidal effect rating [13] | J: blackgrass, herbicidal effect rating [14] | Herbicidal effect on A: late watergrass (grade 0-5) [15] | herbicidal effect rating, C: oval-leafed pondweed [16]
1 | CCCC(=O)Oc1c(C)nn(C)c(=O)c1-c1c(-c2ccc(C(C)C)cc2)sc2ccccc12 [1-126] | 4 (Herbicidal rate of 70% or more and less than 90%) | 1 (Herbicidal rate of 5% or more and less than 20%) | 3 (Herbicidal rate of 40% or more and less than 70%) | 4 (Herbicidal rate of 70% or more and less than 90%) | 2 (Herbicidal rate of 20% or more and less than 40%) | 0 (Herbicidal rate of 5% or less (almost no effect)) | 5 (Herbicidal rate of 90% or more (almost completely withered)) | 4 (Herbicidal rate of 70% or more and less than 90%) | 4 (Herbicidal rate of 70% or more and less than 90%) | 3 (Herbicidal rate of 40% or more and less than 70%) | 3 (Herbicidal rate of 40% or more and less than 70%) | 3 (Herbicidal rate of 40% or more and less than 70%) | 0 (Herbicidal rate of 5% or less (almost no effect)) | 0 (Herbicidal rate of 5% or less (almost no effect)) | 3 (Herbicidal rate of 40% or more and less than 70%) | 1 (Herbicidal rate of 5% or more and less than 20%)
2 | COCc1ccc(-c2sc3ccccc3c2-c2c(O)c(C)nn(C)c2=O)cc1 [1-131] | 5 (Herbicidal rate of 90% or more (almost completely withered)) | 5 (Herbicidal rate of 90% or more (almost completely withered)) | 1 (Herbicidal rate of 5% or more and less than 20%) | 5 (Herbicidal rate of 90% or more (almost completely withered)) | 5 (Herbicidal rate of 90% or more (almost completely withered)) | 4 (Herbicidal rate of 70% or more and less than 90%) | 5 (Herbicidal rate of 90% or more (almost completely withered)) | 5 (Herbicidal rate of 90% or more (almost completely withered)) | 5 (Herbicidal rate of 90% or more (almost completely withered)) | 5 (Herbicidal rate of 90% or more (almost completely withered)) | 5 (Herbicidal rate of 90% or more (almost completely withered)) | 5 (Herbicidal rate of 90% or more (almost completely withered)) | 5 (Herbicidal rate of 90% or more (almost completely withered)) | 1 (Herbicidal rate of 5% or more and less than 20%) | 2 (Herbicidal rate of 20% or more and less than 40%) | 3 (Herbicidal rate of 40% or more and less than 70%)
3 | Cc1nn(C)c(=O)c(-c2c(-c3ccc(OCc4ccccc4)cc3)sc3ccccc23)c1O [1-133] | 5 (Herbicidal rate of 90% or more (almost completely withered)) | 3 (Herbicidal rate of 40% or more and less than 70%) | 3 (Herbicidal rate of 40% or more and less than 70%) | 5 (Herbicidal rate of 90% or more (almost completely withered)) | 0 (Herbicidal rate of 5% or less (almost no effect)) | 2 (Herbicidal rate of 20% or more and less than 40%) | 5 (Herbicidal rate of 90% or more (almost completely withered)) | 1 (Herbicidal rate of 5% or more and less than 20%) | 5 (Herbicidal rate of 90% or more (almost completely withered)) | 5 (Herbicidal rate of 90% or more (almost completely withered)) | 0 (Herbicidal rate of 5% or less (almost no effect)) | 5 (Herbicidal rate of 90% or more (almost completely withered)) | 3 (Herbicidal rate of 40% or more and less than 70%) | 0 (Herbicidal rate of 5% or less (almost no effect)) | 5 (Herbicidal rate of 90% or more (almost completely withered)) | 3 (Herbicidal rate of 40% or more and less than 70%)
4 | Cc1nn(C)c(=O)c(-c2c(-c3ccc(OCC4CC4(F)F)cc3)sc3ccccc23)c1O (centres unmarked) [1-138] | 5 (Herbicidal rate of 90% or more (almost completely withered)) | 0 (Herbicidal rate of 5% or less (almost no effect)) | 3 (Herbicidal rate of 40% or more and less than 70%) | 5 (Herbicidal rate of 90% or more (almost completely withered)) | 4 (Herbicidal rate of 70% or more and less than 90%) | 0 (Herbicidal rate of 5% or less (almost no effect)) | 3 (Herbicidal rate of 40% or more and less than 70%) | 5 (Herbicidal rate of 90% or more (almost completely withered)) | 4 (Herbicidal rate of 70% or more and less than 90%) | 5 (Herbicidal rate of 90% or more (almost completely withered)) | 5 (Herbicidal rate of 90% or more (almost completely withered)) | 5 (Herbicidal rate of 90% or more (almost completely withered)) | 4 (Herbicidal rate of 70% or more and less than 90%) | 3 (Herbicidal rate of 40% or more and less than 70%) | 3 (Herbicidal rate of 40% or more and less than 70%) | 0 (Herbicidal rate of 5% or less (almost no effect))
5 | CSCCOc1ccc(-c2sc3ccccc3c2-c2c(O)c(C)nn(C)c2=O)cc1 [1-141] | 5 (Herbicidal rate of 90% or more (almost completely withered)) | 5 (Herbicidal rate of 90% or more (almost completely withered)) | 3 (Herbicidal rate of 40% or more and less than 70%) | 5 (Herbicidal rate of 90% or more (almost completely withered)) | 4 (Herbicidal rate of 70% or more and less than 90%) | 4 (Herbicidal rate of 70% or more and less than 90%) | 5 (Herbicidal rate of 90% or more (almost completely withered)) | 5 (Herbicidal rate of 90% or more (almost completely withered)) | 5 (Herbicidal rate of 90% or more (almost completely withered)) | 5 (Herbicidal rate of 90% or more (almost completely withered)) | 5 (Herbicidal rate of 90% or more (almost completely withered)) | 5 (Herbicidal rate of 90% or more (almost completely withered)) | 5 (Herbicidal rate of 90% or more (almost completely withered)) | 0 (Herbicidal rate of 5% or less (almost no effect)) | 3 (Herbicidal rate of 40% or more and less than 70%) | 0 (Herbicidal rate of 5% or less (almost no effect))
